From paper PMC7008064 (Drug Design, Development and Therapy, 2020) come the findings set out here.

In assay [1] the test system is neuroblastoma (SH-SY5Y) cell line. As to the kind of experiment: cells. The assay is classed as cell-based. The note with it: for IC50: Homo sapiens, SH-SY5Y, 48 h, read-out: IC50 SH-SY5Y.
Assay [2] deals with HDAC2 (Homo sapiens, UniProt Q92769). The assay is described as follows: HDAC2 inhibitory activity. The assay is classed as biochemical.
In assay [3] the target is HDAC1 (Homo sapiens, UniProt Q13547). As to the kind of experiment: HDAC1 inhibitory activity. Type of assay: biochemical.
HDAC1, sequence (Q13547 whole entry): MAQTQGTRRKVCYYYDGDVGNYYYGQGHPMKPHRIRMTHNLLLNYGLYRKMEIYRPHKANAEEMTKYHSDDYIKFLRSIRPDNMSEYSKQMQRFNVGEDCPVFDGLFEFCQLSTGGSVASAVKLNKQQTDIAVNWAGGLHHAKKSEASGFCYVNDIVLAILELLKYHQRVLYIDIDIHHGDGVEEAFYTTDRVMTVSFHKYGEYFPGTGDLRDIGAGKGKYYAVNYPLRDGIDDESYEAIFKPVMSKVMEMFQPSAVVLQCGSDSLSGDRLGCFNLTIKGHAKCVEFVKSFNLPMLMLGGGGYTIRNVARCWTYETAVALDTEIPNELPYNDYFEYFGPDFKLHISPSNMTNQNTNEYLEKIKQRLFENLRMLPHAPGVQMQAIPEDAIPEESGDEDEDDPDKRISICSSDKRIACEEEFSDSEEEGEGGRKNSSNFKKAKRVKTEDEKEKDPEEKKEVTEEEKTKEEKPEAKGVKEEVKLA
Assay [4] concerns colorectal adenocarcinoma (HT-29) cell line. The assay is described as follows: cells. The note with it: for IC50: Homo sapiens, HT-29, 48 h, read-out: IC50 HT-29. The assay is classed as cell-based.
The mark [5] stands for this setting: HDAC2 IC50 (as printed in docking Table 4), unrounded values repeated in Table 4.
[6] abbreviates: IC50 HDAC2, mean ± S.E. of three independent experiments.
[7] abbreviates: HDAC1 IC50 (as printed in docking Table 3), unrounded values repeated in Table 3.
[8] abbreviates: IC50 HDAC1, mean ± S.E. of three independent experiments.
The mark [9] stands for this setting: ratio of IC50 values vs Gefitinib.

HDAC2, sequence (Q92769 whole entry): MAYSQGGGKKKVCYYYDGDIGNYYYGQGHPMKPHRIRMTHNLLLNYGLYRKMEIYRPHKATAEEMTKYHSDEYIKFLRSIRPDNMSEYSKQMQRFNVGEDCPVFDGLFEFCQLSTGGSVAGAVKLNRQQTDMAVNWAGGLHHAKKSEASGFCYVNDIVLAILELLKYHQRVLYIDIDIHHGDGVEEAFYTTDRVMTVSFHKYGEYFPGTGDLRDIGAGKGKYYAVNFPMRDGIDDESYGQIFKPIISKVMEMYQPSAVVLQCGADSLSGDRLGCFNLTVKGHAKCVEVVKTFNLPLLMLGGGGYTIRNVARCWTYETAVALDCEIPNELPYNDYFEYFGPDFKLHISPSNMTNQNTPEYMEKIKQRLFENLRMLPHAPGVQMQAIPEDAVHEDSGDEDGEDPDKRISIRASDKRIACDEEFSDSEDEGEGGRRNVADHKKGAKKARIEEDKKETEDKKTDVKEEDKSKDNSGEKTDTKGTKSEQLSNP

`Cc1nc(C)c(C(=O)Nc2cccc(C(=O)NN)c2)nc1C` [Compound 8b, N-(3-(Hydrazinecarbonyl)phenyl)-3,5,6-Trimethylpyrazine-2-Carboxamide]: the IC50 (as a rule, the point on the concentration scale where inhibition reaches its midpoint) in assay [1] was 28.5 ± 0.8 µM; in assay [2] (setting [5]) it was 0.113 µM; in assay [2] (setting [6]) it was 0.1129 ± 9e-05 µM; in assay [3] (setting [7]) it was 1.8 µM; in assay [3] (setting [8]), 1.8001 ± 0.00045 µM; in assay [4], 3.25 ± 0.09 µM. For the same compound, the “fold worsening of effectiveness against HDAC1 on shifting hydrazide ZBG from para (7a) to meta (8b)” value in assay [3] (8b relative to 7a) is given as 15.7 fold.
For the compound `Cc1nc(C)c(C(=O)Nc2cccc(C(=O)NO)c2)nc1C` [Compound 8a, N-(3-(Hydroxycarbamoyl)phenyl)-3,5,6-Trimethylpyrazine-2-Carboxamide], the IC50 in assay [1] turned out to be 4.27 ± 0.12 µM; in assay [2] (setting [5]) it was 0.169 µM; in assay [2] (setting [6]), 0.1688 ± 0.00013 µM; in assay [3] (setting [7]), 0.468 µM; in assay [4] it was 1.96 ± 0.05 µM. Also, in assay [4] (setting [9]), the “times more potent than Gefitinib toward HT-29 cells” value stood at 2.5 times.
As for `Cc1nc(C)c(C(=O)Nc2ccc(CC(=O)NO)cc2)nc1C` [Compound 7b, N-(4-(2-(Hydroxyamino)-2-Oxoethyl)phenyl)-3,5,6-Trimethylpyrazine-2-Carboxamide], the IC50 in assay [1] amounted to 67 ± 1.91 µM; in assay [2] (setting [5]) it was 0.132 µM; in assay [2] (setting [6]), 0.1323 ± 0.00012 µM; in assay [3] (setting [7]) it was 2.43 µM; in assay [3] (setting [8]) it was 2.4347 ± 0.00125 µM; in assay [4] it was 4.57 ± 0.13 µM.
As for `Cc1nc(C)c(C(=O)Nc2ccc(C(=O)NN)cc2)nc1C` [Compound 7a, N-(4-(Hydrazinecarbonyl)phenyl)-3,5,6-Trimethylpyrazine-2-Carboxamide], the IC50 in assay [1] worked out at 1.6 ± 0.04 µM; in assay [2] (setting [5]), 0.0537 µM; in assay [2] (setting [6]), 0.0537 ± 5e-05 µM; in assay [3] (setting [7]) it was 0.114 µM; in assay [3] (setting [8]), 0.1143 ± 0.00044 µM; in assay [4], 15.1 ± 0.43 µM. The “fold enhanced efficiency than reference drug Gefitinib against SH-SY5Y cells” value in assay [1] (setting [9]) is listed as 4.7 fold.
With `Cc1nc(C)c(C(=O)Nc2ccc(CC(=O)NN)cc2)nc1C` [Compound 7c, N-(4-(2-Hydrazinyl-2-Oxoethyl)phenyl)-3,5,6-Trimethylpyrazine-2-Carboxamide], the IC50 was determined as 43.5 ± 1.21 µM in assay [1]; 0.205 µM in assay [2] (setting [5]); 0.2054 ± 0.00043 µM in assay [2] (setting [6]); 0.264 µM in assay [3] (setting [7]); 0.2635 ± 0.00127 µM in assay [3] (setting [8]); 6.11 ± 0.17 µM in assay [4].
